Measurements published in US10111890B2, “9-aminomethyl minocycline compounds and uses thereof” (Paratek Pharmaceuticals, Inc., priority 2016, dated 2018).
Like-named read-outs stand apart in the source and are kept apart here.

Experiments:
[1] = Phase 1 multiple oral dose (300, 450, 600 mg once daily x 5 days) crossover study: plasma pharmacokinetics; conditions: for Day 1 PK Summary, Geom. Mean / Day 1 PK Summary, Mean / Day 5 PK Summary, Geom. Mean / Day 5 PK Summary, Mean: preliminary results; for half-life / Tmax / AUC(0-t) / Cmax: human; for half-life: in vivo; for Tmax / AUC(0-t) / Cmax: plasma; for Cmax: Mean Cmax; for exposure (dose-normalized AUC0-24) as % of that predicted if perfectly dose-proportional: increase in dose from 300 mg to 600 mg
Excerpt: Thus the study was designed as a Phase 1, randomized, double-blind, 3-period, crossover study in healthy adult subjects. The study consisted of a screening period (Day −21 through Day −2), 3 baseline periods (Day −1 of each period), 3 treatment periods (Day 1 through Day 6 of each period), and a study completion visit (within 6 to 10 days after the last dose of study drug in Period 3). There was a washout of at least 5 days between the last dose in one period and the first dose in the next period. Subjects were confined to the study site from Day −1 of Period 1 until discharge on Day 6 of Period 3, after the 24-hour blood sampling, urine sampling, and safety assessments were completed. Subjects returned to the study center 6 to 10 days after the last dose of study drug in Period 3 for the study completion visit.
All doses of study drug were administered in the morning with no food or drink except for water at least 6 hours prior to dosing. Subjects then had no food or drink except water for at least 2 hours after dosing and no dairy products, antacids, or multivitamins for 4 hours after dosing.
The 24-hour blood sample for Day 1 was collected prior to dosing on Day 2 for each period.
Point estimates and 90% CIs for differences on the log scale were exponentiated to obtain estimates for the ratios of geometric means and respective 90% CIs on the original scale. No adjustment was made for multiplicity.
The estimates of slope b were reported along with the corresponding 2-sided 90% CIs.

[2] = Phase 1 multiple oral dose study: urine pharmacokinetics; format: in vivo, human; conditions: for CL renal: human, in vivo, read-out: CLr, Mean (CV) (converted)
Method: Urine samples were only collected from a subset of subjects because analysis of urine PK was added by an amendment to the study protocol after the study was already underway. […] Additional parameters […] Ae0-24 were also calculated.

Compound: CN(C)c1cc(CNCC(C)(C)C)c(O)c2c1C[C@H]1C[C@H]3[C@H](N(C)C)C(O)=C(C(N)=O)C(=O)[C@@]3(O)C(O)=C1C2=O [Omadacycline, 9-[(2,2-dimethyl-propylamino)-methyl]-minocycline]
- Mean AUC0-24 ([1]; 300 mg oral once daily, Day 5): 9267.2 ng·h/mL
- Cmax/Dose, Geometric LS Means ([1]; 300 mg, Day 1): 2.09 ng/mL/mg
- Cmax/Dose, Geometric LS Means ([1]; 300 mg, Day 5): 2.62 ng/mL/mg
- Cmax/Dose, Geometric LS Means ([1]; 450 mg, Day 1): 1.81 ng/mL/mg
- Cmax/Dose, Geometric LS Means ([1]; 450 mg, Day 5): 2.32 ng/mL/mg
- Cmax/Dose, Geometric LS Means ([1]; 600 mg, Day 1): 1.54 ng/mL/mg
- Cmax/Dose, Geometric LS Means ([1]; 600 mg, Day 5): 2.11 ng/mL/mg
- Day 1 PK Summary, Geom. Mean ([1]; 300 (dose), Day 1): 6,293.65
- Day 1 PK Summary, Mean ([1]; 300 (dose), Day 1): 6,560.73
- Day 5 PK Summary, Geom. Mean ([1]; 300 (dose), Day 5): 8,990.55
- Day 5 PK Summary, Mean ([1]; 300 (dose), Day 5): 9,351.02
- Day 1 PK Summary, Geom. Mean ([1]; 450 (dose), Day 1): 8,382.03
- Day 1 PK Summary, Mean ([1]; 450 (dose), Day 1): 8,959.13
- Day 5 PK Summary, Geom. Mean ([1]; 450 (dose), Day 5): 12,883.95
- Day 5 PK Summary, Mean ([1]; 450 (dose), Day 5): 13,363.54
- Day 1 PK Summary, Geom. Mean ([1]; 600 (dose), Day 1): 9,644.67
- Day 1 PK Summary, Mean ([1]; 600 (dose), Day 1): 9,990.20
- Day 5 PK Summary, Geom. Mean ([1]; 600 (dose), Day 5): 15,431.37
- Day 5 PK Summary, Mean ([1]; 600 (dose), Day 5): 16,171.61
- systemic exposure on Day 5 higher than on Day 1 ([1]; all tested dose levels): ~50%
- half-life ([1]; mean half-life in plasma (T1/2), across the 3 tested dose levels, Day 1): ~13 h
- half-life ([1]; mean half-life in plasma (T1/2), across the 3 tested dose levels, Day 5): ~16 h
- half-life ([1]; po, 300 mg, Mean T1/2, 300 mg oral once daily, Day 1): 13.7 h
- half-life ([1]; po, 300 mg, Mean T1/2, 300 mg oral once daily, Day 5): 15.5 h
- half-life ([1]; po, 450 mg, Mean T1/2, 450 mg oral once daily, Day 1): 13.4 h
- half-life ([1]; po, 450 mg, Mean T1/2, 450 mg oral once daily, Day 5): 16.8 h
- half-life ([1]; po, 600 mg, Mean T1/2, 600 mg oral once daily, Day 1): 13 h
- half-life ([1]; po, 600 mg, Mean T1/2, 600 mg oral once daily, Day 5): 16.8 h
- Tmax ([1]; oral, 600 mg, time at which mean plasma concentrations peaked (Tmax), all tested dose levels (300, 450, 600 mg), Day 1 and Day 5): 2.5 h
- AUC(0-t) ([1]; po, 300 mg, Mean AUC0-24, 300 mg oral once daily, Day 1): 6640 ng·h/mL
- AUC(0-t) ([1]; po, 300 mg, Mean AUC0-24, 300 mg oral once daily, Day 5): 9270 ng·h/mL
- Cmax ([1]; po, 300 mg, 300 mg oral once daily, Day 1): 649 ng/mL
- Cmax ([1]; po, 300 mg, 300 mg oral once daily, Day 5): 809 ng/mL
- Tmax ([1]; po, 300 mg, Mean Tmax, 300 mg oral once daily, Day 1): 2.5 h
- Tmax ([1]; po, 300 mg, Mean Tmax, 300 mg oral once daily, Day 5): 2.5 h
- AUC(0-t) ([1]; po, 450 mg, Mean AUC0-24, 450 mg oral once daily, Day 1): 8980 ng·h/mL
- AUC(0-t) ([1]; po, 450 mg, Mean AUC0-24, 450 mg oral once daily, Day 5): 13400 ng·h/mL
- Cmax ([1]; po, 450 mg, 450 mg oral once daily, Day 1): 874 ng/mL
- Cmax ([1]; po, 450 mg, 450 mg oral once daily, Day 5): 1080 ng/mL
- Tmax ([1]; po, 450 mg, Mean Tmax, 450 mg oral once daily, Day 1): 2.5 h
- Tmax ([1]; po, 450 mg, Mean Tmax, 450 mg oral once daily, Day 5): 2.5 h
- AUC(0-t) ([1]; po, 600 mg, Mean AUC0-24, 600 mg oral once daily, Day 1): 10000 ng·h/mL
- AUC(0-t) ([1]; po, 600 mg, Mean AUC0-24, 600 mg oral once daily, Day 5): 16400 ng·h/mL
- Cmax ([1]; po, 600 mg, 600 mg oral once daily, Day 1): 954 ng/mL
- Cmax ([1]; po, 600 mg, 600 mg oral once daily, Day 5): 1310 ng/mL
- Tmax ([1]; po, 600 mg, Mean Tmax, 600 mg oral once daily, Day 1): 2.51 h
- Tmax ([1]; po, 600 mg, Mean Tmax, 600 mg oral once daily, Day 5): 2.5 h
- exposure (dose-normalized AUC0-24) as % of that predicted if perfectly dose-proportional ([1]; Day 1): 76%
- exposure (dose-normalized AUC0-24) as % of that predicted if perfectly dose-proportional ([1]; Day 5): 88%
- Ae0-24, Mean (CV) ([2]; 300 mg, Day 1 (n = 2)): 20.37 (8.3) mg
- Fe0-24, Mean (CV) ([2]; 300 mg, Day 1 (n = 2)): 6.79 (8.3) %
- Ae0-24, Mean (CV) ([2]; 300 mg, Day 5 (n = 3)): 26.14 (14.6) mg
- Fe0-24, Mean (CV) ([2]; 300 mg, Day 5 (n = 3)): 8.71 (14.6) %
- Ae0-24, Mean (CV) ([2]; 450 mg, Day 1 (n = 3)): 25.06 (16.8) mg
- Fe0-24, Mean (CV) ([2]; 450 mg, Day 1 (n = 3)): 5.57 (16.8) %
- Ae0-24, Mean (CV) ([2]; 450 mg, Day 5 (n = 5)): 30.81 (33.0) mg
- Fe0-24, Mean (CV) ([2]; 450 mg, Day 5 (n = 5)): 6.85 (33.0) %
- Ae0-24, Mean (CV) ([2]; 600 mg, Day 1 (n = 1)): 31.96 mg
- Fe0-24, Mean (CV) ([2]; 600 mg, Day 1 (n = 1)): 5.33%
- Ae0-24, Mean (CV) ([2]; 600 mg, Day 5 (n = 4)): 51.82 (14.8) mg
- Fe0-24, Mean (CV) ([2]; 600 mg, Day 5 (n = 4)): 8.64 (14.8) %
- CL renal ([2]; 300 mg, Day 1 (n = 2)): 50.2 mL/min
- CL renal ([2]; 300 mg, Day 5 (n = 3)): 54.7 mL/min
- CL renal ([2]; 450 mg, Day 1 (n = 3)): 46.7 mL/min
- CL renal ([2]; 450 mg, Day 5 (n = 5)): 39.7 mL/min
